# Values of other authors in patent US5780426A, “Fivemer cyclic peptide inhibitors of diseases involving αv β3” (IXSYS, Incorporated, priority 1995, dated 1998).
# Bridge positions count the residues as written; N and C are the ends. Ends that are not written are not given here.
# What was measured:
# osteoclasts = details: Horton et al. 1991
# integrin αv β3 = integrin αv β3 (Homo sapiens, UniProt P05106+P06756); details: Koivunen et al. 1995
# αv β3 receptor = details: chicken embryo tumor model; Brooks et al., Cell 1994
# angiogenesis = details: Nicosia and Bonanno 1991
# integrin αv β3, sequence (P06756 31-889 limits assumed): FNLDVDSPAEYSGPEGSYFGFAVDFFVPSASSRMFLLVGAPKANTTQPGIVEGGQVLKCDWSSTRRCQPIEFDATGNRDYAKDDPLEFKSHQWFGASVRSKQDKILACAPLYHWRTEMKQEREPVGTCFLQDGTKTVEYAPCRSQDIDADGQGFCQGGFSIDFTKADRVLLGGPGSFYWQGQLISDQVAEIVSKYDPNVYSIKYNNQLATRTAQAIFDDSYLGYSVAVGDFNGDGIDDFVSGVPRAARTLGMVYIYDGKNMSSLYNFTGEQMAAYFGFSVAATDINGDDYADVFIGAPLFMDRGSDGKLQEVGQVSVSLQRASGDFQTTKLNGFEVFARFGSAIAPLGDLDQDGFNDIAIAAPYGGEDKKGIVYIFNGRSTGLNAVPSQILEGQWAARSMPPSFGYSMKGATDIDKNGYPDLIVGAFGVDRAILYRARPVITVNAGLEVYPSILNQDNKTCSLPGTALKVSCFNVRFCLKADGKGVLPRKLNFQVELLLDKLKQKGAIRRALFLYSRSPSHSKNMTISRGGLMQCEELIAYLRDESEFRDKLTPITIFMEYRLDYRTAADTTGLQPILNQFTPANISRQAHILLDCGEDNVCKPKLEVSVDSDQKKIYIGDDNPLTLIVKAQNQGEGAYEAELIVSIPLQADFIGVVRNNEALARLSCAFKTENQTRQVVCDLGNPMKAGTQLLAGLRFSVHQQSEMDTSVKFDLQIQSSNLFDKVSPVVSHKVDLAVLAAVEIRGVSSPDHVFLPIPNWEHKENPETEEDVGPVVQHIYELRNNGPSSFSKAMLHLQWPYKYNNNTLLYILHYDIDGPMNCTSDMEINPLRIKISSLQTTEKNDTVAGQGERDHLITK
# integrin αv β3, sequence (P06756 891-1048 partner limits assumed): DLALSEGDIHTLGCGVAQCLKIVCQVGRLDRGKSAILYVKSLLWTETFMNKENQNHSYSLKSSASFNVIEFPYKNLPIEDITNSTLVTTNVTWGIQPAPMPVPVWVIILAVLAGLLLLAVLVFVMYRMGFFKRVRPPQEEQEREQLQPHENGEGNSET
# integrin αv β3, sequence (P05106 27-788): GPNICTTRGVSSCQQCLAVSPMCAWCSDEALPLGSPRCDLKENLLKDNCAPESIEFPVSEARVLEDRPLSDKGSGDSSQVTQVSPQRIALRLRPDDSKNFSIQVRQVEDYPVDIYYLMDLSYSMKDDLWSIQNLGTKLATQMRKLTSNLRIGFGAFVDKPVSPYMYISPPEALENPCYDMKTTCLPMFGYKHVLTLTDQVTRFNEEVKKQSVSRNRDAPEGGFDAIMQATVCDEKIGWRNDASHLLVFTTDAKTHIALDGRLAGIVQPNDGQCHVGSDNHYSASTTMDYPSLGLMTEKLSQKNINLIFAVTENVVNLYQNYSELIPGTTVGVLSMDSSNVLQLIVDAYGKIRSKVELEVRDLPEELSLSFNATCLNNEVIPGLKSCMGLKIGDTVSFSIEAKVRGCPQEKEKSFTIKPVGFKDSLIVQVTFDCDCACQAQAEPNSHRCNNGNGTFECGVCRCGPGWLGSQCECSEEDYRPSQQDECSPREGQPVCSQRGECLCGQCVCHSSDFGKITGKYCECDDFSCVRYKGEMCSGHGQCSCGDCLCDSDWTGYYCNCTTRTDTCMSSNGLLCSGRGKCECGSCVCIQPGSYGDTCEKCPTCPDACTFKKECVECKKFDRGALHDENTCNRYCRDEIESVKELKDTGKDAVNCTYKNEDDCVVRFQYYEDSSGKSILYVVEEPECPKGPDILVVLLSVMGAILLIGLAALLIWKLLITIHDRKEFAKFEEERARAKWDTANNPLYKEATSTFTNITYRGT
compound,measurement,setting,value
GRGDSP [Arg-Gly-Asp containing peptide],osteoclast function,osteoclasts,disruption of osteoclast function
ACPSRLDSPCG (disulfide 2-10 (inferred)) [RLD peptide synthesized from a random cyclic phage library (Koivunen et al.)],selectivity for the integrin αv β3,integrin αv β3,only partially selective
same,activity relative to an RGD peptide (fold lower),integrin αv β3; binding and cell adhesion assays,100-1000 fold
CC(C)[C@@H]1NC(=O)[C@@H](Cc2ccccc2)NC(=O)[C@H](CC(=O)O)NC(=O)CNC(=O)[C@H](CCCN=C(N)N)NC1=O [cyclo-RGDfv],inhibition of angiogenesis / neovascularization,αv β3 receptor,inhibit the neovascularization process
Gly-Arg-Gly-Asp-Ser (GRGDS),inhibition of angiogenesis in vitro,angiogenesis,inhibits angiogenesis in vitro
